Where no end group is shown, it is not given here.
Legend:
L. crispatus = assay: direct kill assay (time-kill, FIG. 8); format: cell-based, Lactobacillus crispatus; settings: 0.375, 0.75, 1.5 mg/ml peptide, spotted 30 min post incubation
Protocol: (§1) For these peptides, 0.375 mg/ml concentration is sufficient to cause loss of viability of G. vaginalis and L. iners as compared to the absence of peptides. In FIG. 8A, M1-M8 peptides (SEQ ID NOS: 1, 6, 11, 16, 21, 26, 31, and 36) were tested using direct kill assays. Equal inoculums of G. vaginalis, L. iners and L. crispatus were incubated with either water (0.00), or 0.375 mg/ml, 0.75 mg/ml and 1.5 mg/ml. of peptides. Aliquots were spotted 30 minutes (min) post incubation on human blood tween (HBT) bilayer media, Tryptic soy agar (+5% sheep blood) or MRS (de Man, Rogosa, and Sharpe) agar plates respectively. For these peptides, 0.375 mg/ml concentration is sufficient to cause loss of viability of G. vaginalis and L. iners as compared to the absence of peptides.

G. vaginalis = assay: direct kill assay (time-kill, FIG. 8); format: cell-based, Gardnerella vaginalis; settings: 0.375, 0.75, 1.5 mg/ml peptide, spotted 30 min post incubation
Protocol: as §1

L. iners = assay: direct kill assay (time-kill, FIG. 8); format: cell-based, Lactobacillus iners; settings: 0.375, 0.75, 1.5 mg/ml peptide, spotted 30 min post incubation
Protocol: as §1

[1] = tested on: EpiVaginal tissue model (Mattek); format: cell-based
Protocol: Table 2 below show the results of peptides M6 (SEQ ID NO: 26) and M14 (SEQ ID NO: 177) were assayed for their impact on vaginal irritation using the Epi Vaginal model to determine the exposure time to decrease the tissue viability to 50% (ET50) in EpiVaginal™ tissue model (Mattek). In brief, after exposure to the M6 and M14 peptides at 20 mg/ml final concentration for various times, toxicity was determined by measuring the relative conversion of MTT (3-(4,5-dimethylthiazol-2-yl)-2,5-dephenyltetrazolium bromide) in the vaginal tissue samples treated with peptide compared to tissues treated with a solvent negative control. Positive control was Triton-X-100 at 1% final concentration.

[2] = tested on: MRSN panel P. aeruginosa strain NR-51553; format: cell-based, Pseudomonas aeruginosa; settings: 0.5% CMC and 0.01×MH broth
Excerpt: FIGS. 15A-15B show the growth of P. aeruginosa strain NR-51553 of FIG. 14A in a modified CLSI-based broth dilution assay, in the presence of peptide M16 (SEQ ID NO: 213) in 0.01×MH broth (FIG. 15A) and in the presence of peptide M16 in 0.01×MH broth and 0.5% carboxymethyl cellulose (CMC) (FIG. 15B), where the amount of growth is indicated as: 4 is full growth; 3 is too many colonies to count; 2 is countable colonies; and 1 is no growth.
FIG. 14A indicates sensitive(S) or resistant (R) relative to the listed antibiotic for eight of the more peptide-resistant […] strains of 100 MRSN panel strains (NR-51553, NR-51556, NR-51570, NR51597, NR-51520, NR-51546, NR-51574, and NR-51588). […] CLSI-based method described in CLSI document M07-A10, Vol. 35, No. 2, 2015 (ISBN 1-56238-988-2).

P. aeruginosa [3] = assay: colony-forming assay, CFU/ml over time (FIG. 10A); format: cell-based, Pseudomonas aeruginosa; settings: peptide 0.5% (5 mg/ml); for sensitivity of P. aeruginosa to peptide (CFU/ml): 0.8% NaCl, T=0 up to 60 minutes; for sensitivity of P. aeruginosa to peptide as compared to Indolicidin: after 20 minutes
Excerpt: (§2) FIGS. 10A, 10B, and 10C are graphs depicting bacterial viability in colony forming units (CFU) per milliliter (ml) over time (minutes) in the presence of select polypeptides: SEQ ID NO: 26 (M6); SEQ ID NO: 31 (M7); SEQ ID NO: 177 (M14); SEQ ID NO: 213 (M16); and SEQ ID NO: 291 (M22) in comparison to Indolicidin (IND) in the presence of P. aeruginosa (FIG. 10A), S. aureus MRSA (FIG. 10B), and S. epidermidis (FIG. 10C), respectively.
(§3) In FIGS. 10A, 10B, and 10C, quantitative colony-forming units/ml were assayed using the indicated peptides at a final concentration of 0.5% (5 mg/ml). For this colony-forming assay, peptides were incubated with indicated bacterial strains in 0.8% NaCl, and aliquots were removed starting time T=0, up to 60 minutes, followed by serial dilution and plating on Tryptic soy agar plates for overnight incubation, and enumeration of CFU/ml.

S. epidermidis = assay: colony-forming assay, CFU/ml over time (FIG. 10C); format: cell-based, Staphylococcus epidermidis; settings: peptide 0.5% (5 mg/ml), 0.8% NaCl, T=0 up to 60 minutes
Excerpt: as §2, §3

S. aureus MRSA [4] = assay: direct kill assay of formulated peptide (FIG. 13); format: cell-based, Staphylococcus aureus; settings: 0.5% by weight peptide in 20% propylene glycol and 2% hydroxypropyl cellulose
Protocol: (§4) FIG. 13 depicts the retention of antimicrobial activity of the indicated peptides M6 (SEQ ID NO: 26), M14 (SEQ ID NO:177), M16 (SEQ ID NO: 213) and M22 (SEQ ID NO: 291), with each peptide formulated in a composition with 20% propylene glycol and 2% hydroxypropyl cellulose (F is the formulation without a peptide), in the presence of S. aureus MRSA, from 0 minutes (min) to 60 minutes, as indicated, where the amount of growth is indicated as: 4 is full growth; 3 is too many colonies to count; 2 is countable colonies; and 1 is no growth.
(§5) In FIG. 13, the impact of the formulation comprising 20% propylene glycol and 2% hydroxypropyl cellulose and 0.5% by weight of peptide M6 (SEQ ID NO: 26), M7 (SEQ ID NO: 31), M14 (SEQ ID NO: 177), M16 (SEQ ID NO: 213), or M22 (SEQ ID NO: 291) was tested using a direct kill assay.

S. aureus MRSA [5] = assay: colony-forming assay, CFU/ml over time (FIG. 10B); format: cell-based, Staphylococcus aureus; settings: peptide 0.5% (5 mg/ml); for sensitivity of S. aureus to peptide (CFU/ml): 0.8% NaCl, T=0 up to 60 minutes; for sensitivity of S. aureus MRSA to peptide as compared to Indolicidin: after 20 minutes
Excerpt: as §2, §3

A. baumannii [6] = assay: direct kill assay of formulated peptide (FIG. 12D); format: cell-based, Acinetobacter baumannii; settings: 0.5% peptide in 20% propylene glycol and 2% hydroxypropyl cellulose, 0-60 min
Protocol: as §4, with “FIGS. 12A, 12B, 12C, and 12D depict” for “FIG. 13 depicts”, “G. vaginalis (FIG. 12A), L. iners (FIG. 12B), L. crispatus (FIG. 12C), or A. baumannii (FIG. 12D),” for “S. aureus MRSA,”
as §5, with “FIGS. 12A, 12B, 12C, and 12D,” for “FIG. 13,”, “in” for “using”, “assay as described herein.” for “assay.”

A. baumannii [7] = assay: growth of A. baumannii with peptide (FIG. 17); format: cell-based, Acinetobacter baumannii; settings: 250 μg/ml peptide, 0.01×MH broth
P. aeruginosa [8] = assay: time-kill assays (FIG. 9); format: cell-based, Pseudomonas aeruginosa; settings: as compared to M1-M5
Protocol: FIG. 9. depicts the antibiotic activity (in concentration of polypeptide at 0.375 mg/ml (****), 0.75 mg/ml (***), 1.5 mg/ml (**), or 3 mg/ml (*), as indicated) for each of polypeptides (SEQ ID NO: 1 (M1); SEQ ID NO: 6 (M2); SEQ ID NO: 11 (M3); SEQ ID NO: 16 (M4); SEQ ID NO: 21 (M5); SEQ ID NO: 26 (M6); SEQ ID NO: 31 (M7); SEQ ID NO: 36 (M8); SEQ ID NO: 41 (M9); SEQ ID NO: 76 (M10); SEQ ID NO: 106 (M11); SEQ ID NO: 141 (M12); SEQ ID NO: 142 (M13); SEQ ID NO: 177 (M14); SEQ ID NO:178 (M15); SEQ ID NO: 213 (M16); SEQ ID NO: 219 (M18), SEQ ID NO: 220 (M19); SEQ ID NO: 256 (M21); and SEQ ID NO: 291 (M22)) against P. aeruginosa and S. aureus MRSA, as indicated.
In FIG. 9, the bacterial pathogens P. aeruginosa and S. aureus—associated with skin, burn and wound infections were tested.

## PKVERRPRPR (Synthetic: M1)
L. crispatus
  polypeptides target L. crispatus (time-kill images): not L. crispatus
G. vaginalis
  polypeptides target G. vaginalis (time-kill images): target
L. iners
  polypeptides target L. iners (time-kill images): target

## RGPPKSCRKRD [M14, RGPPKSCRKRD]
[1]
  ET50: >24 h

## HKYAVRVVKK [M16, HKYAVRVVKK]
[2]
  minimal bactericidal concentration (MBC): 15 µg/mL
P. aeruginosa [3]
  sensitivity of P. aeruginosa to peptide (CFU/ml): particularly sensitive
  sensitivity of P. aeruginosa to peptide as compared to Indolicidin: more sensitive
S. epidermidis
  sensitivity of S. epidermidis to peptide (CFU/ml): also sensitive
S. aureus MRSA [4]
  antibacterial activity against S. aureus MRSA in formulation: retains antibacterial activity
S. aureus MRSA [5]
  sensitivity of S. aureus to peptide (CFU/ml): also sensitive
  sensitivity of S. aureus MRSA to peptide as compared to Indolicidin: more sensitive
A. baumannii [6]
  sensitivity of growth of A. baumannii, as compared to M22: more sensitive
A. baumannii [7]
  efficacy on A. baumannii, M16 at 4 hours compared to M14 at 24 hours: more efficacious

## QHQKAKKPWT (Synthetic: M3)
L. crispatus
  polypeptides target L. crispatus (time-kill images): not L. crispatus
G. vaginalis
  polypeptides target G. vaginalis (time-kill images): target
L. iners
  polypeptides target L. iners (time-kill images): target

## RQPRTHKYAVRVVKK (Synthetic: M15)
P. aeruginosa [8]
  effectiveness in reducing the viability of P. aeruginosa: more effective

## PVPQKVRPQR (Synthetic: M7)
L. crispatus
  polypeptides target L. crispatus (time-kill images): not L. crispatus
G. vaginalis
  polypeptides target G. vaginalis (time-kill images): target
P. aeruginosa [3]
  sensitivity of P. aeruginosa to peptide (CFU/ml): particularly sensitive
  sensitivity of P. aeruginosa to peptide as compared to Indolicidin: more sensitive
S. epidermidis
  sensitivity of S. epidermidis to peptide (CFU/ml): also sensitive
P. aeruginosa [8]
  effectiveness in reducing the viability of P. aeruginosa: more effective
S. aureus MRSA [4]
  antibacterial activity against S. aureus MRSA in formulation: retains antibacterial activity
S. aureus MRSA [5]
  sensitivity of S. aureus to peptide (CFU/ml): also sensitive
  sensitivity of S. aureus MRSA to peptide as compared to Indolicidin: more sensitive
L. iners
  polypeptides target L. iners (time-kill images): target

## NTNRPRTKRA (Synthetic: M5)
L. crispatus
  polypeptides target L. crispatus (time-kill images): not L. crispatus
G. vaginalis
  polypeptides target G. vaginalis (time-kill images): target
L. iners
  polypeptides target L. iners (time-kill images): target

## Triton-X-100 [reference compound]
[1]
  ET50: 1.55 h

## KTPKAVNKCR (Synthetic: M8)
L. crispatus
  polypeptides target L. crispatus (time-kill images): not L. crispatus
G. vaginalis
  polypeptides target G. vaginalis (time-kill images): target
P. aeruginosa [8]
  effectiveness in reducing the viability of P. aeruginosa: more effective
L. iners
  polypeptides target L. iners (time-kill images): target

## HQKMAKPWTQ (Synthetic: M4)
L. crispatus
  polypeptides target L. crispatus (time-kill images): not L. crispatus
G. vaginalis
  polypeptides target G. vaginalis (time-kill images): target
L. iners
  polypeptides target L. iners (time-kill images): target

## GKRKPVTRAR (Synthetic: M2)
L. crispatus
  polypeptides target L. crispatus (time-kill images): not L. crispatus
G. vaginalis
  polypeptides target G. vaginalis (time-kill images): target
L. iners
  polypeptides target L. iners (time-kill images): target

## RPRIPKASAK [M6, RPRIPKASAK]
[1]
  ET50: >24 h

## HYYAVAVVK (Synthetic: M22)
S. aureus MRSA [4]
  antibacterial activity against S. aureus MRSA in formulation: retains antibacterial activity
  time from which viability of S. aureus MRSA is reduced: 0 min
